Reference: US9249129B2, “Morpholino substituted urea derivatives as mTOR inhibitors” (CELLZOME LIMITED, priority 2010, dated 2016)

Legend:
Assay in all cases: kinobeads assay with mass spectrometry detection of kinases (kinase selectivity profile)
Type in all cases: binding
[1] = target: T1, kinases (kinome) (Homo sapiens, UniProt P43405); conditions: SYK (TK), IPI00018597
T1 construct: determined in kinobeads assays with mass spectrometry detection of kinases as described previously; endogenous in cells; host or cells: cell lysate
Source text: (§1) The protein kinase complement of the human genome (the kinome) was described previously (Manning et al., 2002. Science 298(5600):1912-1934). Sequence accession numbers are defined by the International Protein Index (IPI) (Kersey et al., 2004. Proteomics 4(7):1985-1988).

[2] = target: T2, kinases (kinome) (Homo sapiens, UniProt Q14289); conditions: PYK2 (TK), IPI00029702
T2 construct: determined in kinobeads assays with mass spectrometry detection of kinases as described previously; endogenous in cells; host or cells: cell lysate
Source text: as §1

[3] = target: T3, kinases (kinome) (Homo sapiens, UniProt Q06187); conditions: BTK (TK), IPI00029132
T3 construct: determined in kinobeads assays with mass spectrometry detection of kinases as described previously; endogenous in cells; host or cells: cell lysate
T3 sequence (Q06187 whole entry): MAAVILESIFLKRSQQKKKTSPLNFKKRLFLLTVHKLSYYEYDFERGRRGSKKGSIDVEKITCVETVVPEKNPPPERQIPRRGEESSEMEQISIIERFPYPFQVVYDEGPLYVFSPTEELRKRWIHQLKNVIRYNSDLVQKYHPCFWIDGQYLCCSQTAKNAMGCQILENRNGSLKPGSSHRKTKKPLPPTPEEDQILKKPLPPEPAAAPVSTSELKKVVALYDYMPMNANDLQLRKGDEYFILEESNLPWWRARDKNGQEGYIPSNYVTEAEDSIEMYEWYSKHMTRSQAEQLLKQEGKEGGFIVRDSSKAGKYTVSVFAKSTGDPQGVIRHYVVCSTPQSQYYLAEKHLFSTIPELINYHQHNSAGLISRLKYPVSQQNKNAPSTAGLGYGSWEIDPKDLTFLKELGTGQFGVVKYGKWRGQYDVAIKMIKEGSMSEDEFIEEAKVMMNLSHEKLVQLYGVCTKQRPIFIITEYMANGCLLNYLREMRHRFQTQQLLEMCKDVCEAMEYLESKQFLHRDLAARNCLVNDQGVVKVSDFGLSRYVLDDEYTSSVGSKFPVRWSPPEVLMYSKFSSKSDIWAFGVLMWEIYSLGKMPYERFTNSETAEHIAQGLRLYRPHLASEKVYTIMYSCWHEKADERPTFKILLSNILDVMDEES
Source text: as §1

[4] = target: T4, kinases (kinome) (Homo sapiens, UniProt Q9UBE8); conditions: NLK (CMGC), IPI00008237
T4 construct: determined in kinobeads assays with mass spectrometry detection of kinases as described previously; endogenous in cells; host or cells: cell lysate
T4 sequence (Q9UBE8 1-527): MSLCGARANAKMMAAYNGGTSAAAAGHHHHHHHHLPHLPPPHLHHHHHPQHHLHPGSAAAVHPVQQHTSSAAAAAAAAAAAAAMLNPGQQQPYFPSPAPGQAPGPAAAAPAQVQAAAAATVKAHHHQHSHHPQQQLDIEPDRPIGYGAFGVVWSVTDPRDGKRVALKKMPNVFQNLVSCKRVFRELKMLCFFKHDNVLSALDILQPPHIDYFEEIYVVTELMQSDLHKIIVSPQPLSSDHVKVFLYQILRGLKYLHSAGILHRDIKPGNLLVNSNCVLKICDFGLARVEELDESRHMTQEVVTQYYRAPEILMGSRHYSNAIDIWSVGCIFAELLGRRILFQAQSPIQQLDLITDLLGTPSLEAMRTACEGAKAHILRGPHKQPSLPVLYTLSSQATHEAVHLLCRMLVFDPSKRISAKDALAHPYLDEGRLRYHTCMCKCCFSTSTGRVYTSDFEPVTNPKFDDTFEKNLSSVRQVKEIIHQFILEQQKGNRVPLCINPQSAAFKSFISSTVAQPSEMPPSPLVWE
Source text: as §1

[5] = target: T5, kinases (kinome) (Homo sapiens, UniProt Q9Y572); conditions: RIPK3 (TKL), IPI00847572
T5 construct: determined in kinobeads assays with mass spectrometry detection of kinases as described previously; endogenous in cells; host or cells: cell lysate
T5 sequence (Q9Y572 whole entry): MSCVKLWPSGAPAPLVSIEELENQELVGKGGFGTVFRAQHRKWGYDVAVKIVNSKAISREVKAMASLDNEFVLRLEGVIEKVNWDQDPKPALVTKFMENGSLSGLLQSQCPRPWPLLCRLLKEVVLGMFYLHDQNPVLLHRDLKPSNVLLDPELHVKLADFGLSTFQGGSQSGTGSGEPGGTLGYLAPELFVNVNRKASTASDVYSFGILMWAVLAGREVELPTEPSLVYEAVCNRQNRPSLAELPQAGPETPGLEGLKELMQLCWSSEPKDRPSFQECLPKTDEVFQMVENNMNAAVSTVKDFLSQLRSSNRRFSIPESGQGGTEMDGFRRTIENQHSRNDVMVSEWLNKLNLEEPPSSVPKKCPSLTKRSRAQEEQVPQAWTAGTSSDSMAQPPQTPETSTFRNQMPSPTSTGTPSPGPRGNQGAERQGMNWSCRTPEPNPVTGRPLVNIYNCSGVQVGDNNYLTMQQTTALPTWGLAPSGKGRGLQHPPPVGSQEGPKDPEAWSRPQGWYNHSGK
Source text: as §1

[6] = target: T6, kinases (kinome) (Homo sapiens, UniProt Q96RR4); conditions: CaMKK2 (Other), IPI00290239
T6 construct: determined in kinobeads assays with mass spectrometry detection of kinases as described previously; endogenous in cells; host or cells: cell lysate
T6 sequence (Q96RR4 whole entry): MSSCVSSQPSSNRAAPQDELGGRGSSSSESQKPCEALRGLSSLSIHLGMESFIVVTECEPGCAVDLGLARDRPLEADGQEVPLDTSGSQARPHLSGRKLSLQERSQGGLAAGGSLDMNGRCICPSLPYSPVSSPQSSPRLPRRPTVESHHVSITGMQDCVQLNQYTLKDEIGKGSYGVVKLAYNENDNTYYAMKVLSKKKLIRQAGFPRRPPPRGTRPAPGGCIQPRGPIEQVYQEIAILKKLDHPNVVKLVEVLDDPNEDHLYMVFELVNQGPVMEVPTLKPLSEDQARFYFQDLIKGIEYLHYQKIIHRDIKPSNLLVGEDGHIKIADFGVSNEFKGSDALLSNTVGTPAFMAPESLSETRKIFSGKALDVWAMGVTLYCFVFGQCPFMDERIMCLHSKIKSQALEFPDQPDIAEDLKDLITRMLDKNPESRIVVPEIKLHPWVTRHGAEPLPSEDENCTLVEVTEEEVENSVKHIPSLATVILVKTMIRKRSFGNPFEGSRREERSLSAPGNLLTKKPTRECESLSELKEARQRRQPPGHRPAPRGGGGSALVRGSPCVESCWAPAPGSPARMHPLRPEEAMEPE
Source text: as §1

[7] = target: T7, kinases (kinome) (Homo sapiens, UniProt P16591); conditions: FER (TK), IPI00029263
T7 construct: determined in kinobeads assays with mass spectrometry detection of kinases as described previously; endogenous in cells; host or cells: cell lysate
Source text: as §1

[8] = target: T8, kinases (kinome) (Homo sapiens, UniProt P68400); conditions: CK2a1 (Other), IPI00016613
T8 construct: determined in kinobeads assays with mass spectrometry detection of kinases as described previously; endogenous in cells; host or cells: cell lysate
T8 sequence (P68400 whole entry): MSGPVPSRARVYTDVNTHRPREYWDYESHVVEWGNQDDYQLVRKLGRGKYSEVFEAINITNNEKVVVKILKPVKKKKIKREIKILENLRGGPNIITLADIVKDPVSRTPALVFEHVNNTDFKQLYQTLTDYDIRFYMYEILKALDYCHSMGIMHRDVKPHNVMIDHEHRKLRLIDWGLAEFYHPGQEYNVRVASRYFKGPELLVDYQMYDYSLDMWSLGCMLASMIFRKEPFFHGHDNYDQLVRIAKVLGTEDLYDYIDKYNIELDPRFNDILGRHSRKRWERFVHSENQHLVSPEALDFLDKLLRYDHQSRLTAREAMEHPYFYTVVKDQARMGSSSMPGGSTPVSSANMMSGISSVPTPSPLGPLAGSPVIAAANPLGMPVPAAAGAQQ
Source text: as §1

[9] = target: T9, kinases (kinome) (Homo sapiens, UniProt O15530); conditions: PDK1 (AGC), IPI00002538
T9 construct: determined in kinobeads assays with mass spectrometry detection of kinases as described previously; endogenous in cells; host or cells: cell lysate
T9 sequence (O15530 1-556): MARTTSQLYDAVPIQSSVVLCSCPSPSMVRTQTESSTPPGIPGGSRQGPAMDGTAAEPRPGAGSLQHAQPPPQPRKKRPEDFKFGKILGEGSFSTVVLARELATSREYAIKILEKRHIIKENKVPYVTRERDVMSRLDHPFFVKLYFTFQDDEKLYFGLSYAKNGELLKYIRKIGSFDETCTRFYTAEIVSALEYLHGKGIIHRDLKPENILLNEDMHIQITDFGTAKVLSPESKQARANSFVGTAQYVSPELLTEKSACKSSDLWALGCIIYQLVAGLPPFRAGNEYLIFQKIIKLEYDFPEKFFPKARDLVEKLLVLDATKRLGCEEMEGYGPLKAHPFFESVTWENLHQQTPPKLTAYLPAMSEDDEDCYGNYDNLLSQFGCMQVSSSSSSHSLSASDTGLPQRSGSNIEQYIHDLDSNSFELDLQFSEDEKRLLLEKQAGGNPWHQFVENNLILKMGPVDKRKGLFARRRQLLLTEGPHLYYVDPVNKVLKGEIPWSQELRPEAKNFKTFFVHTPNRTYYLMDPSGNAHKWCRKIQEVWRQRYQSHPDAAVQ
Source text: as §1

[10] = target: T10, kinases (kinome) (Homo sapiens, UniProt P24941); conditions: CDK2 (CMGC), IPI00031681
T10 construct: determined in kinobeads assays with mass spectrometry detection of kinases as described previously; endogenous in cells; host or cells: cell lysate
Source text: as §1

[11] = target: T11, kinases (kinome) (Homo sapiens, UniProt P42356); conditions: PIK4Ca (Lipid Kinase), IPI00070943
T11 construct: determined in kinobeads assays with mass spectrometry detection of kinases as described previously; endogenous in cells; host or cells: cell lysate
Source text: as §1

[12] = target: T12, kinases (kinome) (Homo sapiens, UniProt Q96GD4); conditions: AurB (Other), IPI00796914
T12 construct: determined in kinobeads assays with mass spectrometry detection of kinases as described previously; endogenous in cells; host or cells: cell lysate
T12 sequence (Q96GD4 whole entry): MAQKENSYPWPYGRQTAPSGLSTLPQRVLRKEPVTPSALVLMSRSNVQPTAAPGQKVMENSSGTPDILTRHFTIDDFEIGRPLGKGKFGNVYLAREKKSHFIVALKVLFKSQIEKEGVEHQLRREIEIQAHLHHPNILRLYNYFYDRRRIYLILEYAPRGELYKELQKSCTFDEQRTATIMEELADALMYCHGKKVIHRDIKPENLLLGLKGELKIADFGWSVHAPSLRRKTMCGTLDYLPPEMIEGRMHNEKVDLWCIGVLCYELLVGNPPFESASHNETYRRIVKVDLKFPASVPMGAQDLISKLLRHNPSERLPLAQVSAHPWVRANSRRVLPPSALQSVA
Source text: as §1

[13] = target: T13, kinases (kinome) (Homo sapiens, UniProt Q08881); conditions: ITK (TK), IPI00004566
T13 construct: determined in kinobeads assays with mass spectrometry detection of kinases as described previously; endogenous in cells; host or cells: cell lysate
T13 sequence (Q08881 1-620): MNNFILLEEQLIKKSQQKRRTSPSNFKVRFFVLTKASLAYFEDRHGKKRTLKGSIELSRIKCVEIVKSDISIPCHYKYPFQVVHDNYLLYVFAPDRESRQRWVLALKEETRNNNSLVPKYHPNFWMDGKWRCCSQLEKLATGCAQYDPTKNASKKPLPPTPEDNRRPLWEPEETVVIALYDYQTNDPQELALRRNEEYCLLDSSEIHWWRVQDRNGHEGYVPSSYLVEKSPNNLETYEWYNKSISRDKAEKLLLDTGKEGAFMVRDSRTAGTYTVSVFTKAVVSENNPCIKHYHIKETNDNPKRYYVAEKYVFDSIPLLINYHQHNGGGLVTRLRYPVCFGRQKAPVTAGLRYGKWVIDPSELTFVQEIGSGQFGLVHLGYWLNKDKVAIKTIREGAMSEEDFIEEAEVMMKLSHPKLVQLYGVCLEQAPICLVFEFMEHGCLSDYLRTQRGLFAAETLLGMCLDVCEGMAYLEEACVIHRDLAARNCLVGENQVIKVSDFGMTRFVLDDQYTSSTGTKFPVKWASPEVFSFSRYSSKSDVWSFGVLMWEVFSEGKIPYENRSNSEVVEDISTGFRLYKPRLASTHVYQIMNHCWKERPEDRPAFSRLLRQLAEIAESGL
Source text: as §1

[14] = target: T14, kinases (kinome) (Homo sapiens, UniProt P29597); conditions: TYK2 (TK), IPI00022353
T14 construct: determined in kinobeads assays with mass spectrometry detection of kinases as described previously; endogenous in cells; host or cells: cell lysate
T14 sequence (P29597 whole entry): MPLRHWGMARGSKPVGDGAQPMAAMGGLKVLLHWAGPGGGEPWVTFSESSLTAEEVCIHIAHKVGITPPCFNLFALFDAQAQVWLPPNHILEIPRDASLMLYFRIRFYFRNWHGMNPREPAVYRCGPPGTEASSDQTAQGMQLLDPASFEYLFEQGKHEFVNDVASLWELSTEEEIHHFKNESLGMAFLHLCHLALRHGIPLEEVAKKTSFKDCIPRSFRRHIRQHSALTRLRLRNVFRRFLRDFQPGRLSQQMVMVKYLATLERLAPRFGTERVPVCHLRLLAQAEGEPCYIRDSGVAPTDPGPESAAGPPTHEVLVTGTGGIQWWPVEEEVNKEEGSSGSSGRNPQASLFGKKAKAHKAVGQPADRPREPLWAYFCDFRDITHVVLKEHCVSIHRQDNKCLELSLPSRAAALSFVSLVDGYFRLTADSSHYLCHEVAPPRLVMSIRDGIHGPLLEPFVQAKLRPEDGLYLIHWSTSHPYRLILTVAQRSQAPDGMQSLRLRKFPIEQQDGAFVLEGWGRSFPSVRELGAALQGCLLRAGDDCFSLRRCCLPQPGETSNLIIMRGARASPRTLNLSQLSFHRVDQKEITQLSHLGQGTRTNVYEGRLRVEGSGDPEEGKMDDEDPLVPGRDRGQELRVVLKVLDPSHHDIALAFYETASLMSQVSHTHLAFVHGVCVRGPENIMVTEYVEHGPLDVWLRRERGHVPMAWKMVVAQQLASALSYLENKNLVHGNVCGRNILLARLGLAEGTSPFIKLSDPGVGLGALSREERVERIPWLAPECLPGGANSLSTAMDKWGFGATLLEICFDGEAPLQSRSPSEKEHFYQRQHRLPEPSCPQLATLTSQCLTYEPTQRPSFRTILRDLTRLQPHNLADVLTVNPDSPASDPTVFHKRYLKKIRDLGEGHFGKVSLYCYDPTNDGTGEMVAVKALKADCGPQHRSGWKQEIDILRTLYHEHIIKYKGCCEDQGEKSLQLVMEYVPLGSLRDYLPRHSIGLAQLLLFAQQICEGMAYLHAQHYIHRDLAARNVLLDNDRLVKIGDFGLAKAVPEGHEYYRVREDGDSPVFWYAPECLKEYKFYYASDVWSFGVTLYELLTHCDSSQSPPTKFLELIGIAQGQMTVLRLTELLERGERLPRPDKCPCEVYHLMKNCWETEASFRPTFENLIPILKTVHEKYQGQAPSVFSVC
Source text: as §1

[15] = target: T15, kinases (kinome) (Homo sapiens, UniProt Q9H0K1); conditions: QIK (CAMK), IPI00465291
T15 construct: determined in kinobeads assays with mass spectrometry detection of kinases as described previously; endogenous in cells; host or cells: cell lysate
T15 sequence (Q9H0K1 whole entry): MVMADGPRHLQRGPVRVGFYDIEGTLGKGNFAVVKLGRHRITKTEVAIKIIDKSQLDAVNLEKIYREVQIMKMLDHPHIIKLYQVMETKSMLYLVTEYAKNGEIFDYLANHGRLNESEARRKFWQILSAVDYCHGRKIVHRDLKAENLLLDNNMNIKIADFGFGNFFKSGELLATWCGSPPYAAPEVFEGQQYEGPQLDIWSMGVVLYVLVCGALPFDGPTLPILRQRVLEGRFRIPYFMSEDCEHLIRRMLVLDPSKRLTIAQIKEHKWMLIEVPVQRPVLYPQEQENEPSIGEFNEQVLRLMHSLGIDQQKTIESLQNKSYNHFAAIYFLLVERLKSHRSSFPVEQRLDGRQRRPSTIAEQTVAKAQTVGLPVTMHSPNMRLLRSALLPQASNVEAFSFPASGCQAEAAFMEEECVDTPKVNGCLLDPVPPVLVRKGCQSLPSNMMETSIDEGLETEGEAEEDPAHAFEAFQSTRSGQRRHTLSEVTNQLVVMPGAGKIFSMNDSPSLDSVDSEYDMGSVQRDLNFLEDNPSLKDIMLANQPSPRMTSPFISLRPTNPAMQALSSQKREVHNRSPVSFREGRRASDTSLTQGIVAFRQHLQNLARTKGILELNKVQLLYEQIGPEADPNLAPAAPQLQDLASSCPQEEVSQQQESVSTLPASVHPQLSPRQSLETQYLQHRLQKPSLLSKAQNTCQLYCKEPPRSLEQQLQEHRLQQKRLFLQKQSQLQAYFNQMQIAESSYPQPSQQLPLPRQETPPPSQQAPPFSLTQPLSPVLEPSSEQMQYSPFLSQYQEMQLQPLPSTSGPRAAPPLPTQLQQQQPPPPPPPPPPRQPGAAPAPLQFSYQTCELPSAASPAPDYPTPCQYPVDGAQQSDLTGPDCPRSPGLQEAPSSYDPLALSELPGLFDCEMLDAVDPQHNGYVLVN
Source text: as §1

Measured: IC50

C[C@H]1COCCN1c1nc(-c2ccc(NC(=O)NC3CC3)cc2)cc(-c2ccccc2S(C)(=O)=O)n1 [Example 4, (S)-1-cyclopropyl-3-(4-(2-(3-methylmorpholino)-6-(2-(methylsulfonyl)phenyl)pyrimidin-4-yl)phenyl)urea]
> 10 µM: all assays above

C[C@H]1COCCN1c1cc(-c2ccccc2S(C)(=O)=O)nc(-c2ccc(NC(=O)NC3CC3)cc2)n1 [Example 6, (S)-1-cyclopropyl-3-(4-(4-(3-methylmorpholino)-6-(2-(methylsulfonyl)phenyl)pyrimidin-2-yl)phenyl)urea]
> 10 µM: all assays above

CCNC(=O)Nc1ccc(-c2cc(-c3ccccc3C#N)nc(N3CCOC[C@@H]3C)n2)cc1 [Example 8, (S)-1-(4-(6-(2-cyanophenyl)-2-(3-methylmorpholino)pyrimidin-4-yl)phenyl)-3-ethylurea]
> 10 µM: all assays above

C[C@H]1COCCN1c1nc(-c2ccc(NC(=O)NC3CC3)cc2)cc(-c2cc(F)ccc2S(C)(=O)=O)n1 [Example 40, (S)-1-cyclopropyl-3-(4-(6-(5-fluoro-2-(methylsulfonyl)phenyl)-2-(3-methylmorpholino)pyrimidin-4-yl)phenyl)urea]
> 10 µM: all assays above

C[C@H]1COCCN1c1cc(-c2ccccn2)nc(-c2ccc(NC(=O)NCCO)cc2)n1 [Example 43, (S)-1-(2-hydroxyethyl)-3-(4-(4-(3-methylmorpholino)-6-(pyridin-2-yl)pyrimidin-2-yl)phenyl)urea]
> 10 µM: all assays above

C[C@H]1COCCN1c1nc(-c2ccc(NC(=O)NC3CC3)cc2)cc(-c2cccnc2S(C)(=O)=O)n1 [Example 46, (S)-1-cyclopropyl-3-(4-(2-(3-methylmorpholino)-6-(2-(methylsulfonyl)pyridin-3-yl)pyrimidin-4-yl)phenyl)urea]
> 10 µM: all assays above
